The source of these data is PubChem BioAssay (NCI).

Among the test systems are SN12C renal; A498 renal; MCF7 breast; 786-0 renal; CAKI-1 renal; SF-295 CNS; HS 578T breast; KM12 colon; HCC-2998 colon; DU-145 prostate.
Holding throughout (experiment): NCI-60 cell line screen, 48 h

Structures are written as SMILES. Where “and” joins values, the source holds several entries; their conditions need not be identical. Equal entries are not always repeated.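 Five concentrations, 48 hours, 96-well plates. At the GI50, growth is halved. TGI: concentration producing complete growth inhibition.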

As to `COc1ccc2c(c1)N(CCO)C1=C(C(=O)OC1)C2c1ccc(OC)c(OC)c1` (stereo not drawn), the GI50 in the experiment with SN12C renal was 5.8 µM; in the experiment on A498 renal it was 1.56 µM; in the experiment on MCF7 breast, 2.67 µM; in the experiment on 786-0 renal it was 3.98 µM; in the experiment on CAKI-1 renal, 3.05 µM; in the experiment on SF-295 CNS it was 2.43 µM. Also, the GI50 in the experiment with HS 578T breast is 2.88 µM; with KM12 colon, 1.43 µM; in the experiment with HCC-2998 colon it was 2.61 µM; in the experiment with DU-145 prostate, 3.01 µM. Further, the TGI in the experiment with SN12C renal is more than 100 µM; in the experiment on A498 renal, 5.93 µM; in the experiment with MCF7 breast it was more than 100 µM; in the experiment with 786-0 renal, more than 100 µM; in the experiment with CAKI-1 renal it was more than 100 µM; with SF-295 CNS, more than 100 µM. Moreover, the TGI is 9.82 µM in the experiment on HS 578T breast, 14.7 µM in the experiment with KM12 colon, more than 100 µM in the experiment on HCC-2998 colon and 9.38 µM with DU-145 prostate.
Consider `COc1c2ccccc2c(O)c2c(=O)ccn(C)c12`, for which the GI50 in the experiment on SN12C renal was 6.79 µM; in the experiment with A498 renal, 10.7 µM; in the experiment with MCF7 breast it was 3.31 µM; with 786-0 renal it was 17.2 µM; in the experiment on CAKI-1 renal it was 8.59 µM; with SF-295 CNS it was 3.69 µM. Further, the GI50 in the experiment on HS 578T breast is 12.2 µM; in the experiment with KM12 colon it was 4.97 µM; in the experiment on HCC-2998 colon, 3.68 µM; in the experiment with DU-145 prostate, 7.67 µM. Further, the TGI in the experiment with SN12C renal came out at 22.1 µM; in the experiment with A498 renal it was 41.6 µM; in the experiment on MCF7 breast it was 11.3 µM; with 786-0 renal, 66.4 µM; with CAKI-1 renal, 52.9 µM; in the experiment with SF-295 CNS, 27.8 µM. The TGI with HS 578T breast is 61.5 µM; in the experiment with KM12 colon, 38.3 µM; in the experiment on HCC-2998 colon, 20 µM; with DU-145 prostate it was more than 100 µM.
On to `OCc1ccc(N(Cc2ccc(F)cc2)CC2CCC2)cc1Cl`, for which the GI50 is 12 µM in the experiment on SN12C renal; 0.092 µM in the experiment on A498 renal; 3.25 µM in the experiment with MCF7 breast; 12.3 µM with 786-0 renal; 2.04 µM with CAKI-1 renal; 4.06 µM with SF-295 CNS. The GI50 with HS 578T breast is 17.3 µM; in the experiment with KM12 colon, 14 µM; in the experiment on HCC-2998 colon it was 11.5 µM; in the experiment with DU-145 prostate it was 15 µM. For the same compound, the TGI in the experiment with SN12C renal was 24.7 µM; with A498 renal it was 0.34 µM; with MCF7 breast, 16.3 µM; in the experiment on 786-0 renal it was 25.8 µM; in the experiment with CAKI-1 renal, 8.51 µM; in the experiment on SF-295 CNS, 17.5 µM. Further, the TGI was 40.3 µM in the experiment on HS 578T breast, 27.8 µM in the experiment with KM12 colon, 25.2 µM with HCC-2998 colon and 28.5 µM with DU-145 prostate.
For `COc1cc(NC(=O)c2ccccc2Nc2ccnc(C(F)(F)F)c2)cc(OC)c1OC`, the GI50 in the experiment with SN12C renal was 52.9 µM; in the experiment with A498 renal it was 26.6 µM; in the experiment on MCF7 breast, 37.1 µM; in the experiment on 786-0 renal it was more than 100 µM; in the experiment with CAKI-1 renal, 50.4 µM; in the experiment with SF-295 CNS, 41.9 µM. Besides, the GI50 in the experiment on HS 578T breast is 58.8 µM; with KM12 colon it was 54.9 µM; with HCC-2998 colon it was 88.3 µM; in the experiment on DU-145 prostate, 95.4 µM. The TGI with SN12C renal, in the experiment with A498 renal, in the experiment on MCF7 breast, in the experiment on 786-0 renal, with CAKI-1 renal and in the experiment with SF-295 CNS was more than 100 µM throughout. In addition, the TGI in the experiment with HS 578T breast, with KM12 colon, in the experiment with HCC-2998 colon and in the experiment on DU-145 prostate was more than 100 µM in each case.
As for `COc1ccc2c(c1)C(=O)c1c-2c(N2CCN(C(=O)CCNCCNCCO)CC2)nc2ccccc12`, the GI50 in the experiment with SN12C renal was 15.9 µM; in the experiment on A498 renal it was 18.7 µM; in the experiment with MCF7 breast, 7.27 µM; in the experiment with 786-0 renal, 11.4 µM; in the experiment on CAKI-1 renal it was 24 µM; with SF-295 CNS, 18.8 µM. The GI50 was 16.1 µM with HS 578T breast, 16.3 µM with KM12 colon, 13.8 µM in the experiment with HCC-2998 colon and 12.1 µM in the experiment with DU-145 prostate. Further, the TGI was 31.7 µM in the experiment with SN12C renal; 34.4 µM in the experiment with A498 renal; 25.9 µM in the experiment on MCF7 breast; 25.6 µM in the experiment on 786-0 renal; 53.3 µM with CAKI-1 renal; 39.3 µM in the experiment on SF-295 CNS. Further, the TGI with HS 578T breast was 35.4 µM; in the experiment with KM12 colon, 53.1 µM; in the experiment with HCC-2998 colon it was 30.1 µM; in the experiment on DU-145 prostate it was 24.5 µM.
`CCN(CCO)CCCOc1ccc2c(Nc3cc(CC(=O)Nc4cccc(F)c4)[nH]n3)ncnc2c1`: the GI50 in the experiment with SN12C renal was 19.8 µM; in the experiment with A498 renal, more than 49.1 µM; with 786-0 renal, more than 70.1 µM; in the experiment on CAKI-1 renal, more than 36.5 µM; in the experiment with HS 578T breast, 8.15 µM; in the experiment on KM12 colon it was 3.45 µM and 0.82 µM. In addition, the GI50 was 20.8 µM in the experiment on HCC-2998 colon and 34.5 µM in the experiment with DU-145 prostate. Further, the TGI is more than 100 µM with SN12C renal; more than 100 µM with A498 renal; 22.5 µM and > 4.11 µM in the experiment on MCF7 breast; more than 100 µM with 786-0 renal; more than 100 µM with CAKI-1 renal; more than 100 µM in the experiment with SF-295 CNS. Besides, the TGI with HS 578T breast is more than 60.5 µM; with KM12 colon, 16 µM and > 10 µM; with HCC-2998 colon, 61.9 µM and > 3.75 µM; with DU-145 prostate, more than 100 µM.
Consider `C[C@H](c1ccccc1)N(CCC(=O)O)C(=O)CCN(C(=O)CCN(C(=O)CCN[C@H](C)c1ccccc1)[C@H](C)c1ccccc1)[C@H](C)c1ccccc1`, for which the GI50 in the experiment on SN12C renal, in the experiment with A498 renal, in the experiment with MCF7 breast, with 786-0 renal, in the experiment on CAKI-1 renal and in the experiment with SF-295 CNS was more than 100 µM throughout. Moreover, the GI50 in the experiment with HS 578T breast, in the experiment with KM12 colon, in the experiment on HCC-2998 colon and in the experiment with DU-145 prostate was more than 100 µM each time. Moreover, the TGI with SN12C renal, in the experiment on A498 renal, in the experiment with MCF7 breast, in the experiment with 786-0 renal, in the experiment with CAKI-1 renal and in the experiment on SF-295 CNS was more than 100 µM each time. For the same compound, the TGI with HS 578T breast, in the experiment on KM12 colon, in the experiment with HCC-2998 colon and in the experiment with DU-145 prostate was more than 100 µM each time.
